Calls of active or inactive are those of the source. How the calls were made is not given here.
Test system: HEK-293T NF-kB luciferase reporter counterscreen, luminescence
Assay: NF-kB reporter inhibition in HEK-293T, dose response, counter-screen for T-cell antigen receptor NF-kB inhibitors, HEK-293T cells, luminescence (AID 489041)

| SMILES | IC50 |
| --- | --- |
| O=[N+]([O-])c1ccc(-c2nc(C(Cl)Cl)c3ccccc3n2)cc1 | 54.5 µM (inactive) |
| O=C(Nc1ccc(CSc2ccccc2)cc1)c1ccc(CN2CCOCC2)cc1 | 0.34 µM |
| CCc1cc2c(=O)nc3n(c2s1)Cc1ccccc1/C3=C(/O)c1cccc([N+](=O)[O-])c1 | > 80 µM (inactive) |
| COc1ccccc1-c1nnc2n1N=C(c1ccc(O)c(O)c1)CS2 | 2.41 µM |
| COc1ccc(-n2nnnc2-c2ccccc2)cc1 | > 80 µM (inactive) |
| CC1(C)C[C@H]2C=C(C=O)[C@]3(C=O)C[C@]3(C)[C@H]2C1 | 31.1 µM (inactive) |
| O=C(CSc1nnc(Cn2nnc3ccccc32)o1)N(Cc1ccc(F)cc1)c1ccccc1 | 0.94 µM |
| CCN1C/C(=C/c2ccc(OC)c(O)c2)C(=O)/C(=C/c2ccc(OC)c(O)c2)C1 | 39 µM (inactive) |
| C#CC[N+](C)(C)CCCCCCCCCCCC | 25.1 µM (inactive) |
| Cc1c(C(=O)N2CCOCC2)[nH]c2c1C(=O)CC(c1ccccc1Cl)C2 (stereo not given) | 13.8 µM |
| Cc1oc(-c2ccc(Cl)cc2)nc1CS(=O)CC(=O)NCCCN1CCN(Cc2ccccc2)CC1 (stereo not given) | 4.13 µM |
| CCCCCCCCC[n+]1cccc2c3ccccc3ccc21 | 0.55 µM |
| Cc1cccc(N2CCN(C(=O)c3c(-c4ccccc4Cl)noc3C)CC2)c1C | 6.03 µM |
| CCOc1ccc(S(=O)(=O)N2c3ccccc3CC2C)cc1 (stereo not given) | 5.98 µM |
| N=c1ccn(CC(=O)c2ccc(-c3ccccc3)cc2)cc1 | 5.16 µM |
| O=C1/C(=C/c2ccc(N3CCOCC3)o2)SC(=Nc2ccccc2)N1CCc1c[nH]c2ccccc12 | 13.8 µM |
| COC(=O)[C@]12OC[C@]34C([C@@H](O)[C@@H]1O)[C@]1(C)CC(=O)C(O)=C(C)[C@@H]1C[C@H]3OC(=O)[C@H](O)[C@@H]24 (stereo not given in full) | 0.548 µM |
| CC1=C(C(=O)OCc2ccc3c(c2)OCO3)C(c2ccc(Cl)cc2)NC(=O)N1 (stereo not given) | < 0.16 µM |
| COc1ccc(-n2nnnc2-c2cccc(OC)c2)cc1 | 19.7 µM |
| Cc1cc(C)cc(NC(=O)c2cc(C)n(Cc3cccs3)c2C)c1 | > 80 µM (inactive) |
| O=C(Nc1ccc(S(=O)(=O)Nc2ccc(F)cc2)cc1)c1ccc(CN2CCOCC2)cc1 | 5.68 µM |
| CCOC(=O)C(C)Oc1cccc2c(=O)n(CC(=O)NCc3ccc4c(c3)OCO4)ccc12 (stereo not given) | 2.23 µM |
| Cc1ncoc1C(=O)NC1CCCc2c1cnn2-c1ccc(C(C)(C)C)cc1 (stereo not given) | 3.41 µM |
| CC[C@]1(O)CC2CN(CCc3c([nH]c4ccccc34)[C@@](C(=O)OC)(c3cc4c(cc3OC)N(C=O)[C@H]3[C@@](O)(C(=O)OC)[C@H](OC(C)=O)[C@]5(CC)C=CCN6CC[C@]43[C@@H]65)C2)C1 (stereo not given in full) | 3.12 µM |

| SMILES | IC50 |
| --- | --- |
| CCN1/C(=C/c2ccc3ccccc3[n+]2CC)C=Cc2ccccc21 | 1.01 µM |
| CC(C)(C)c1csc(Sc2ccc([N+](=O)[O-])cn2)n1 | 36.1 µM (inactive) |
| COC(=O)Cc1[nH]n(-c2nc3ccccc3s2)c(=O)c1C(C)=Nc1ccc(OC)cc1 | < 0.16 µM |
| C[C@]12CC[C@@H]3c4cc(O)c(O)cc4CC[C@H]3[C@@H]1CC[C@@H]2O | 45 µM (inactive) |
| COc1ccc(CC(=O)Nc2cccc(-c3nnc(-c4cccc(C)c4)o3)c2)cc1OC | 1.24 µM |
| Cc1cccc(N=Nc2ccc(O)c3ncccc23)c1 | > 80 µM (inactive) |
| C=C(C)C(=O)O[C@H]1C/C(C)=C\C(=O)/C=C(\C)[C@H](O)[C@@H]2OC(=O)C(=C)[C@@H]21 | 19.7 µM |
| C=CCOC(=O)c1[nH]c2c(c1C)C(=O)CC(c1ccco1)C2 (stereo not given) | < 0.16 µM |
| CCOc1ccc(N/C(N)=N/c2nc(CSc3nnc(C)s3)cc(=O)[nH]2)cc1 | 29.9 µM (inactive) |
| COc1ccc(/C=N/NC(=O)c2[nH]c3ccc(Br)cc3c2-c2ccccc2)cc1 | 21.1 µM (inactive) |
| Cc1ccc(C(=O)c2cc([N+](=O)[O-])ccc2N2CCCCC2)c(C)c1 | 7.17 µM |
| CC(C)n1c(CN(C)Cc2ccccc2)nc2c1c(=O)n(C)c(=O)n2C | 2.88 µM |
| CC/C=C/CC(=O)N[C@@H](c1ccccc1)[C@@H](O)C(=O)O[C@H]1C[C@@]2(O)[C@@H](OC(=O)c3ccccc3)C3[C@](C)(C(=O)[C@H](OC(C)=O)C(=C1C)C2(C)C)[C@@H](O)C[C@H]1OC[C@@]31OC(C)=O (stereo not given in full) | > 80 µM (inactive) |
| Cc1ccc(C(=O)Nc2cccc(C(=O)O)c2)cc1 | 4.1 µM |
| NS(=O)(=O)c1ccc(Sc2nc3ccccc3s2)c([N+](=O)[O-])c1 | 7.35 µM |
| COc1ccc(/C=c2/sc3n(c2=O)C(c2ccccc2OC)C2=C(N=3)c3ccccc3CC2)cc1O (stereo not given) | > 80 µM (inactive) |
| CCN(CC)c1ccc(NC(=O)c2cc(OC)cc(OC)c2)c(C)c1 | 6 µM |
| CCCCCn1c2c(c(=N)c3ccccc31)CCC2 | 1.75 µM |
| CCOc1ccccc1NS(=O)(=O)c1ccc(-c2cnc(C3CC3)o2)cc1 | 1.79 µM |
| CCOc1ccccc1C(=O)Nc1ccc2nc(N3CCN(c4ncccn4)CC3)cc(C)c2c1 | 15.2 µM |
| COc1ccccc1NC(=O)Cn1nnc(C(=O)NCc2cccs2)c1N | 1.93 µM |
| O=C(c1ccc(CS(=O)c2ccccc2Cl)o1)N1CCN(c2ccccn2)CC1 (stereo not given) | 18.8 µM |
| COc1ccc(OC)c(-c2nnc3n2N=C(c2ccc(OC)c(OC4CCCC4)c2)CS3)c1 | 3.09 µM |
| Nc1nc(Cl)cc(N2CCC(c3cc(-c4ccc(Cl)cc4)n[nH]3)CC2)n1 | 2.44 µM |

| SMILES | IC50 |
| --- | --- |
| Cc1cccc(NS(=O)(=O)c2ccc(-c3cnc(C4CC4)o3)cc2)c1 | 3.27 µM |
| CCCCc1ccc(NC(=O)C(=O)NCCN2CCN(Cc3ccc([N+](=O)[O-])cc3)CC2)cc1 | 0.4 µM |
| COc1cc(C2c3cc4c(cc3C(OC3OC5COC(c6cccs6)OC5C(O)C3O)C3COC(=O)C23)OCO4)cc(OC)c1O (stereo not given) | > 80 µM (inactive) |
| O=C1CC(c2cccc(Br)c2)c2cc3c(cc2N1)CCC3 (stereo not given) | 6.52 µM |
| O=C(CNC(=O)c1ccco1)N=Nc1c(O)n(CCc2ccccc2)c2ccccc12 | 5.17 µM |
| Cc1ccc2nc(C)c(CN3CCN(c4ccc([N+](=O)[O-])cc4Cl)CC3)n2c1 | 6.8 µM |
| CCCOc1ccccc1C1CC(=O)Nc2cc3c(cc21)OCO3 (stereo not given) | 2.25 µM |
| COc1cccc(CN(C)C(=O)c2ccc(OCC(=O)Nc3cccc(C(F)(F)F)c3)c(OC)c2)c1 | 1.88 µM |
| COc1ccc(C)cc1NS(=O)(=O)c1ccc(-c2cnc(C3CC3)o2)cc1 | 0.84 µM |
| CCOc1ccccc1C(=O)N1CCN(c2cccc(Cl)c2)CC1 | 2.28 µM |
| Oc1ccc(Nc2nc3ccccc3nc2Nc2ccc(O)cc2)cc1 | 17.6 µM |
| CC1CC(C)CN(S(=O)(=O)c2ccc(NC(=O)c3ccc(=O)[nH]c3)cc2)C1 (stereo not given) | 12.6 µM |
| COc1ccc(C[C@H](N)C(=O)N[C@H]2[C@@H](O)[C@H](n3cnc4c(N(C)C)ncnc43)O[C@@H]2CO)cc1 | 2.64 µM |
| Cc1ccsc1/C=N/NC(=O)c1cc(-c2ccncc2)nc2ccccc12 | 2.94 µM |
| Clc1ccc(CSc2nncn2-c2ccc3c(c2)OCCO3)cc1 | 13.8 µM |
| Cc1cc(-c2ccc(C)c(S(=O)(=O)N3CCN(c4ccc([N+](=O)[O-])cc4)CC3)c2)on1 | > 80 µM (inactive) |
| Cc1ccc(S(=O)(=O)NCc2ccncc2)cc1C | 15.5 µM |
| CN[C@H]1CCc2cc(OC)c(OC)c(OC)c2-c2ccc(OC)c(=O)cc21 | < 0.16 µM |
| COc1ccc(S(=O)(=O)Nc2cccc(-c3ccc4nncn4n3)c2)cc1F | 49.2 µM (inactive) |
| Cc1ccc(NC(=O)CSc2nc(-c3ccco3)cc(C(F)(F)F)n2)cc1C | > 80 µM (inactive) |
| CSc1ccc(COC(=O)c2cc([N+](=O)[O-])ccc2N2CCOCC2)cc1 | 1.7 µM |
| Cc1ccc(C(=O)Nc2ncc(Cc3ccc(SC(F)F)cc3)s2)cc1 | > 80 µM (inactive) |
